Data: patent US20060234936A1, “Method for screening substances capable of inhibiting the hyperplasia of pancreatic cells and/or the hypersecretion of insulin by pancreatic cells” (Taisho Pharmaceutical Co., Ltd., priority 2005, published 2006)

Experiments:
[1] = system: isolated islet; details: cited from earlier work
[2] = system: Reg IIIβ; test: Real-time quantitative RT-PCR of Reg IIIβ mRNA in INS-1 cells treated with PACAP; assay type: cell-based, rat
Description: (§1) INS-1 cells (rat pancreatic β cell line) were cultured in an incubator at 5% CO2/95% air and 37° C. using an RMI 1640 medium (GIBCO) containing 10 mM HEPES, 10% FBS, 1 mM sodium pyruvate, 50 μM β-mercaptoethanol, 100 units/ml penicillin, and 100 μg/ml streptomycin. Subculturing was carried out every 7 days, using PBS containing 0.25% trypsin/0.02% EDTA
Real-time quantitative PCR was conducted under the conditions similarly to the mouse islet case. The expression level of the β-actin gene was analyzed as an internal standard in a similar manner. In PCR the primers having the following sequences were used.

[3] = system: INS-1 cells; test: Analysis of cell growth, [3H] thymidine incorporation in INS-1 cells; assay type: cell-based, rat
Description: as §1
The cells were seeded on a 48-well plate at a concentration of 1×10^5 cells/well and were cultured for 48 hours. After washing the cells with PBS, the cells were cultured in an RPMI-1640 medium (test medium) for 12 to 15 hours which had been deprived of serum and to which 3 mM glucose and 0.1% BSA had been added. […] The cells were cultured in the media for 20 hours, and after further addition of [^3H] thymidine (Amersham) to the media in order to achieve a radioactivity of 1 μCi/well, the cells were cultured for additional 4 hours. After washing the cells with PBS twice followed by with 10% trichloroacetic acid (TCA) twice, the cells were fixed by TCA treatment for 30 minutes. The cells were solublized with 0.1 N NaOH and the radioactivity of each medium was measured with a liquid scintillation counter.

[4] = system: Reg IIIβ gene; test: Gene expression inhibition by siRNA, Reg IIIβ mRNA by real-time quantitative RT-PCR; assay type: cell-based, rat; details: INS-1 cells, siRNA 100 nM, 24 hours after introduction
Description: (§2) INS-1 cells (rat pancreatic β cell line) were cultured in an incubator at 5% CO2/95% air and 37° C. using an RPMI 1640 medium (GIBCO) containing 10 mM HEPES, 10% FBS, 1 mM sodium pyruvate, and 50 μM β-mercaptoethanol. Subculturing was carried out every 5 days, using PBS containing 0.25% trypsin/0.02% EDTA.
(§3) The cells were seeded on a 12-well plate (Iwaki Glass Co. Ltd.) at a concentration of 0.25×10^5 cells/cm^2 and were cultured for 48 hours. A cocktail of three types of siRNAs to the Reg IIIβ gene, individual siRNAs (three types), siRNA to Lamin (positive control; B-Bridge), and a cocktail of three types of non-specific siRNAs (negative control; B-Bridge) were diluted with Opti-MEM (GIBCO) so as to produce the final concentrations of 100 nM. The respective RNAs were introduced into the cells using Lipofectamine 2000 (Invitrogen Corporation) and the cells were cultured for 24 hours. After washing the cells with PBS twice, total RNAs were prepared using a SV Total Isolation Kit (Promega Corporation) and cDNA pools were then prepared using reverse transcriptase M-MLV (Invitrogen Corporation). Real-time quantitative PCR was conducted under the conditions similarly to the mouse islet case. The expression level of the rat β-actin gene was analyzed as an internal standard in a similar manner. The sequences of the siRNAs and the sequences of specific primers for PCR are shown below.

[5] = system: Lamin gene; test: Gene expression inhibition by siRNA, Lamin mRNA by real-time quantitative RT-PCR; assay type: cell-based, rat; details: INS-1 cells, siRNA 100 nM, 24 hours after introduction
Description: as §2, §3

For `CC[C@H](C)[C@H](NC(=O)CNC(=O)[C@H](CC(=O)O)NC(=O)[C@H](CO)NC(=O)[C@@H](N)Cc1c[nH]cn1)C(=O)N[C@@H](Cc1ccccc1)C(=O)N[C@H](C(=O)N[C@@H](CC(=O)O)C(=O)N[C@@H](CO)C(=O)N[C@@H](Cc1ccc(O)cc1)C(=O)N[C@@H](CO)C(=O)N[C@@H](CCCNC(=N)N)C(=O)N[C@@H](Cc1ccc(O)cc1)C(=O)N[C@@H](CCCNC(=N)N)C(=O)N[C@@H](CCCCN)C(=O)N[C@@H](CCC(N)=O)C(=O)N[C@@H](CCSC)C(=O)N[C@@H](C)C(=O)N[C@H](C(=O)N[C@@H](CCCCN)C(=O)N[C@@H](CCCCN)C(=O)N[C@@H](Cc1ccc(O)cc1)C(=O)N[C@@H](CC(C)C)C(=O)N[C@@H](C)C(=O)N[C@@H](C)C(=O)N[C@H](C(=O)N[C@@H](CC(C)C)C(=O)NCC(=O)N[C@@H](CCCCN)C(=O)N[C@@H](CCCNC(=N)N)C(=O)N[C@@H](Cc1ccc(O)cc1)C(=O)N[C@@H](CCCCN)C(=O)N[C@@H](CCC(N)=O)C(=O)N[C@@H](CCCNC(=N)N)C(=O)N[C@H](C(=O)N[C@@H](CCCCN)C(=O)N[C@@H](CC(N)=O)C(=O)N[C@@H](CCCCN)C(N)=O)C(C)C)C(C)C)C(C)C)[C@@H](C)O` [PACAP], the “level at which glucose-inducible insulin secretion is promoted” value [1] is given as 10^−14 M, the “change in mRNA expression of Reg IIIβ” value ([2]; 3 mM glucose) is given as “no change in expression” and the “change in mRNA expression of Reg IIIβ” value ([2]; 11 mM glucose) is given as “no change in expression”. The “change in mRNA expression of Reg IIIβ” value ([2]; high glucose concentration (25 mM), after 4 hours) was “expression-induction”, the “change in mRNA expression of Reg IIIβ” value ([2]; high glucose concentration (25 mM), until after 48 hours) was “continuous increase in the expression” and the “effect on cell growth” value ([3]; 3 mM glucose) was “No effects”. The “effect on cell growth” value ([3]; 11 mM glucose) was “No effects” and the “cell growth inhibition, dependence on PACAP concentration” value ([3]; high glucose concentration, varying PACAP concentration) was “inhibited the cell growth of INS-1 cells in a concentration-dependent manner”.

For “(3): double-stranded siRNA to Reg IIIβ, SEQ ID NO:20/21 (chain 1 GGAAACAGCUACCAAUAUATT; chain 2 UAUAUUGGUAGCUGUUUCCTT; chemistry not given here)”, the “suppression of expression of Reg IIIβ gene vs negative control” value [4] was “about 60%”.

For “Lamin siRNA: double-stranded siRNA to Lamin A/C, positive control (B-Bridge), SEQ ID NO:14/15 (chain 1 GGUGGUGACGAUCUGGGCUTT; chain 2 AGCCCAGAUCGUCACCACCTT; chemistry not given here)”, the “suppression of expression of Lamin gene vs negative control” value [5] was “about 65%”.
